The target of assay [1] is T1, 14‐3‐3η (Homo sapiens, UniProt Q04917).
T1 construct: full‐length proteins were concentrated by centrifugation, rebuffered in HEPES buffer; made in house; host or cells: E. coli BL21(DE3)
T1 sequence (Q04917 1-246): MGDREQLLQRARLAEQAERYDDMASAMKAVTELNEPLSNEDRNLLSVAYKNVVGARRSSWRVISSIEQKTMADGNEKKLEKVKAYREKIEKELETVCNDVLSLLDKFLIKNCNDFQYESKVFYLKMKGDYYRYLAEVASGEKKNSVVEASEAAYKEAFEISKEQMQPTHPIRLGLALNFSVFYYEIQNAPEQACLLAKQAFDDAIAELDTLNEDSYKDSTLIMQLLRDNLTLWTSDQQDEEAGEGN
The experiment in a line: Fluorescence anisotropy direct titration, 14‐3‐3η. The format is binding. In general terms: In fluorescence polarisation assays a small probe gives low polarisation when free and higher when bound to something large.
Experimental: All assays were performed in 384 well plates (each experiment was run in triplicates) and data were collected by Perkin Elmer EnVision 2013 plate reader with excitation at 480 nm (30 nm bandwidth), polarised dichroic mirror at 505 nm and emission at 535 nm (40 nm bandwidth, S and P polarised). Experiments were carried out in HBS buffer (10 mM HEPES, 150 mM NaCl, pH 7.4) + 0.1% Tween 20 + 0.1% BSA). A ½ fold dilution series was performed in the titration, with plates read after 30 min, 4 h and 20–24 h. […] Collected data were processed in Microsoft Excel using the equations below. Total intensity I and anisotropy r were calculated using Equations 1 and 2 for each well. Average anisotropy was plotted against protein concentration using OriginPro and a logistic curve was fitted to give r min and r max. Using Equation 3 anisotropy was converted into fraction bound and multiplied by peptide concentration to be fitted in Origin using Equation 5 to obtain K d values.

Assay [2] concerns the target T1, 14‐3‐3η. As to the kind of experiment: Isothermal titration calorimetry, peptide into 14‐3‐3η. To be noted: 25 °C, HEPES pH 7.5. The format is binding. As to the method: (§1) […]
Moreover, such experiments provide thermodynamic data and as a label‐free method require no immobilization/functionalization of any of the binding partners. Here data were obtained by titration of the peptide into 14‐3‐3η protein (Fig. 2D,E and Fig. S7).
Isothermal titration calorimetry experiments were carried out on a MicroCal iTC200 in HBS buffer at 25°C (25 mM HEPES pH 7.5, 100 mM NaCl, 10 mM MgCl2, 0.5 mM TCEP). Peptides ([…]) in the syringe were titrated into a cell containing 14‐3‐3η ([…]). Data were fitted using MICROCAL software (Northampton, MA, USA) to give binding constant (K d), enthalpy (ΔH), entropy (ΔS) and binding stoichiometry (n).
On the technique in general: Isothermal titration calorimetry measures the heat released or taken up as one component is titrated into another.

In assay [3] the target is T1, 14‐3‐3η. As to the kind of experiment: Surface plasmon resonance on immobilized 14‐3‐3η. Format: binding. To be noted: multicycle kinetic format, Langmuir model, 25 °C. As to the method:
as §1
Experiments were performed at 25 °C using a Biacore T200 instrument (GE Healthcare, Buckinghamshire, UK). For immobilization, the running buffer was HBS buffer (HEPES, NaCl, Tween‐20, pH 7.4). 14‐3‐3η was immobilized on an NTA sensor chip (Series S Sensor Chip GE Healthcare) using NTA reagent and Biacore Amine Coupling Kit. Briefly, 14‐3‐3η was diluted to 0.2 mg·mL^−1 and 200 µL was injected over a chip surface that had been activated with an injection of Ni^2+, followed by 140 µL of 1 : 1 NHS/EDC. A 30 µL of 0.5 M ethanolamine was then injected to cap the excess free amine groups. […] Then, 20 µL of these solutions were injected over a 14‐3‐3η immobilized surface for 1 min at the […] flow rate, followed by a 4 min regeneration period with HBS buffer. Kinetics and the binding affinity were calculated using the BIACORE evaluation software (Buckinghamshire, UK). Standard dose–response curves were fitted by plotting RUs against the peptide concentration.
(Surface plasmon resonance follows binding to a sensor surface in real time, without labels.)

Assay [4] concerns the target T1, 14‐3‐3η. As to the kind of experiment: Analytical ultracentrifugation (sedimentation velocity) of 14‐3‐3η with peptide. The note with it: AUC‐SV; 14 μM 14‐3‐3η, protein : peptide 1 : 1 and 1 : 0.5; 10 mM HEPES, 150 mM NaCl, pH 7.4; 25 °C. From the text:
The 1 : 1 stoichiometry between the doubly phosphorylated peptides and 14‐3‐3 contrasts with previously reported work, although it may be that the length and/or accessible conformation of the hDMX and hDM2 peptides are incompatible with the simultaneous engagement of both 14‐3‐3 protomers in the dimeric structure. To further explore this behaviour and understand the basis of cooperativity and affinity enhancement we performed additional experiments. To exclude the possible formation of higher‐order oligomers (e.g. 14‐3‐3 tetramers held together by two peptides bridging two dimers), an analytical ultracentrifugation experiment was performed. The 14‐3‐3η (at the concentration of 14 μM, approximately corresponding to the second binding events observed in FA, Fig. 2C) and hDMX335‐373 ^pSer342/pSer367 peptide in two different concentration ratios (1 : 1 and 1 : 0.5, protein vs. peptide) were analysed. […] The second binding event observed only in fluorescence anisotropy experiments, may represent a further non‐specific binding event or an interaction linked to 14‐3‐3 dimerization and will be investigated in future work.
AUC‐SV experiments were performed using a Beckman Coulter Optima XL‐I ultracentrifuge. […] The diffusion‐deconvoluted sedimentation coefficient distributions c(s) were calculated using the SEDFIT program (Bethesda, MD, USA). […]

In the next assay the test system is all isoforms of 14‐3‐3. As to the kind of experiment: Fluorescence anisotropy assays with all isoforms of 14‐3‐3 (result in words). The format is binding, human. To be noted: FAM tracer peptide 50 nM, 0.1 nM - 300 µM protein, 10 mM HEPES, 150 mM NaCl, 0.1% Tween 20, 0.1% BSA pH 7.4; n = 3. From the text:
14‐3‐3 proteins were titrated against a constant concentration of the tracer resulting in an increase of anisotropy upon engaging 14‐3‐3 proteins (Fig. 2A–C for 14‐3‐3 binding hDMX sequences and Figs S4–S6, for 14‐3‐3 binding hDM2 sequences, non‐binding sequence, and unphosphorylated controls). A noteworthy feature of the data is that different maximum anisotropy levels were observed between hDMX or hDM2 peptides and 14‐3‐3 isoforms, indicating different diffusion properties of the fluorophore when bound to the different 14‐3‐3 isoforms. […]
All assays were performed in 384 well plates (each experiment was run in triplicates) and data were collected by Perkin Elmer EnVision […] plate reader with excitation at 480 nm (30 nm bandwidth), polarised dichroic mirror at 505 nm and emission at 535 nm (40 nm bandwidth, S and P polarised). […] A ½ fold dilution series was performed in the titration, with plates read after 30 min, 4 h and 20–24 h. […] Total intensity I and anisotropy r were calculated using Equations 1 and 2 for each well. […]
Figure S4. Fluorescence anisotropy assays for the hDM2 peptides. […]
Figure S5. Fluorescence anisotropy assays for the hDMX144-158pThr151 peptide with all isoforms of 14-3-3. […]

The results in this text go back to article PMC9541495, “Understanding the interaction of 14‐3‐3 proteins with hDMX and hDM2: a structural and biophysical study” (The Febs Journal, 2022).

Where a SMILES comes first, the peptide text is derived from it. [ ]: non-standard residue; d: D form. pS = N[C@@H](COP(=O)(O)O)C(=O)O

For `CC[C@H](C)[C@H](NC(=O)[C@H](CC(=O)O)NC(=O)[C@H](CO)NC(=O)[C@@H](NC(=O)[C@H](COP(=O)(O)O)NC(=O)[C@H](CC(C)C)NC(=O)[C@H](CO)NC(=O)[C@H](Cc1c[nH]cn1)NC(=O)[C@@H](NC(=O)[C@H](CC(C)C)NC(=O)[C@H](CCCCN)NC(=O)[C@H](CO)NC(C)=O)[C@@H](C)O)[C@@H](C)O)C(=O)N[C@H](C(=O)N[C@@H](C)C(=O)N[C@H](C(=O)N1CCC[C@H]1C(=O)N[C@@H](CCC(=O)O)C(=O)N[C@@H](CCCCN)C(=O)N[C@@H](CCC(=O)O)C(=O)N[C@@H](CC(N)=O)C(=O)N[C@@H](CCC(=O)O)C(=O)NCC(=O)N[C@@H](CC(N)=O)C(=O)N[C@@H](CC(=O)O)C(=O)N[C@H](C(=O)N1CCC[C@H]1C(=O)N[C@@H](CC(=O)O)C(=O)N[C@@H](CS)C(=O)N[C@@H](CCCNC(=N)N)C(=O)N[C@@H](CCCNC(=N)N)C(=O)N[C@H](C(=O)N[C@H](C(=O)N[C@@H](COP(=O)(O)O)C(=O)N[C@@H](C)C(=O)N1CCC[C@H]1C(=O)N[C@H](C(=O)N[C@H](C(=O)N[C@@H](CCCNC(=N)N)C(=O)N1CCC[C@H]1C(N)=O)C(C)C)C(C)C)[C@@H](C)CC)[C@@H](C)O)C(C)C)[C@@H](C)CC)[C@@H](C)O` [hDMX335‐373 ^pSer342/pSer367], the “fold higher affinity Kd1 of doubly phosphorylated peptide compared to singly phosphorylated peptide” value on 14‐3‐3η [1] (FA, 14‐3‐3η, compared to hDM2_160‐171 ^pSer166 (hDM2 peptide) or hDMX361‐374 ^pSer367 (hDMX peptide)) is 3 fold. In addition, the “∆G (ITC), 14‐3‐3η” value on 14‐3‐3η [2] (acetyl labelled peptides) is -10.7 kcal/mol. On 14‐3‐3η [2] (acetyl peptides, 14‐3‐3η), the “n (binding stoichiometry, ITC)” value worked out at 0.94; the “‐T∆S (ITC)” value was -5.4 kcal/mol; the “∆H (ITC)” value was -5.28 ± 0.17 kcal/mol. At 14‐3‐3η [3], the off-rate (koff) stood at 0.0048 s⁻¹ and the on-rate constant (kon) worked out at 1.51e+06 M⁻¹ s⁻¹. At 14‐3‐3η [4], the “sedimentation coefficient of 14‐3‐3η with peptide vs protein alone (in words)” value is “remained unchanged”.

In the case of `CC[C@H](C)[C@H](NC(=O)[C@@H](NC(=O)[C@H](CCCNC(=N)N)NC(=O)[C@H](CCCNC(=N)N)NC(=O)[C@H](CS)NC(=O)[C@H](CC(=O)O)NC(C)=O)[C@@H](C)O)C(=O)N[C@@H](COP(=O)(O)O)C(=O)N[C@@H](C)C(=O)N1CCC[C@H]1C(=O)N[C@H](C(=O)N[C@H](C(=O)N[C@@H](CCCNC(=N)N)C(=O)N1CCC[C@H]1C(=O)N[C@@H](CCCCN)C(N)=O)C(C)C)C(C)C` [hDMX361‐374 ^pSer367] (Ac-DCRRTI[pS]APVVRPK-NH2), on 14‐3‐3η [1] (FA direct titration, FAM‐Ahx tracer peptide 50 nM, pH 7.4, 1:1 fit, n = 3, read-out: K d, 14‐3‐3η), the Kd was found to be 98.8 ± 4.6 nM. On 14‐3‐3η [3], this compound registered a koff of 0.121 s⁻¹ and a kon of 389000 M⁻¹ s⁻¹.

As for “X‐STSRKRT pT EDDIPTL‐NH2 [hDMX144‐158 ^pThr151, hDMX‐derived phosphopeptide, N‐terminal acetyl (ITC, SPR, crystallography) or FAM‐Ahx (FA tracer), C‐terminal amide]”, the “FA response / affinity with 14‐3‐3 proteins, all isoforms (in words)” value in the assay with all isoforms of 14‐3‐3 is on record as “no response”.

As a reminder, the koff is a measure of how fast the partners let go of each other. Higher therefore signals fast dissociation. Broadly, the kon is the second-order rate constant of association.
